Values quoted from earlier work, collected in US20090241221A1, “TANDEM REAPEAT DNA CONSTRUCTS PRODUCING PROTEINS THAT ATTACK PLANT PATHOGENIC VIRUSES, FUNGI, AND BACTERIA BY DISRUPTING TRANSCRIPTION FACTORS ESSENTIAL FOR REPLICATION THEREOF IN PLANTS” (priority 2008, published 2009).

Tested on: Magnaporthe grisea
Details: PA treated plants; doses in the range of 0.5 mg/mL; cited from earlier work

O=C(O)c1ccccn1 [picolinic acid, 2-pyridine carboxylic acid]
resistance against M. grisea: enhanced
